{"source": "patent US7262192B2", "about": "“Substituted pyrazolo[4,3-d]pyrimidines and their use as PDE-5 inhibitors” (Pfizer Inc., priority 2003, dated 2007)", "molecular_target": "cGMP-specific PDE-5 (UniProt O76074)", "assay": "PDE-5 inhibition, batch method or scintillation proximity assay", "assay_type": "biochemical, human", "conditions": "activity against PDE-5; representative preferred compounds", "excerpt": "The compounds of the invention are inhibitors of cyclic guanylate monophosphate (cGMP)-specific phosphodiesterase type 5 (PDE-5 inhibitors).\nThe required PDE enzymes can be isolated from a variety of sources, including human corpus cavernosum, human and rabbit platelets, human cardiac ventricle, human skeletal muscle and bovine retina, essentially by a modification of the method of Thompson, W J et al.; Biochemistry 18(23), 5228-5237, 1979, as described by Ballard S A et al.; J. Urology 159(6), 2164-2171, 1998. In particular, cGMP-specific PDE-5 and cGMP-inhibited cAMP PDE-3 can be obtained from human corpus cavernosum tissue, human platelets or rabbit platelets; cGMP-stimulated PDE-2 was obtained from human corpus cavernosum; calcium/calmodulin (Ca/CAM)-dependent PDE-1 from human cardiac ventricle; cAMP-specific PDE-4 from human skeletal muscle; and photoreceptor PDE-6 from bovine retina. Phosphodiesterases 7-11 can be generated from full length human recombinant clones transfected into SF9 cells.\nAssays can be performed either using a modification of the “batch” method of Thompson W J and Appleman M M; Biochemistry 10(2),311-316, 1971, essentially as described by Ballard S A et al.; J. Urology 159(6), 2164-2171, 1998, or using a scintillation proximity assay for the direct detection of [^3H]-labelled AMP/GMP using a modification of the protocol described by Amersham plc under product code TRKQ7090/7100. In summary, for the scintillation proximity assay the effect of PDE inhibitors was investigated by assaying a fixed amount of enzyme in the presence of varying inhibitor concentrations and low substrate, (cGMP or cAMP in a 3:1 ratio unlabelled to [^3H]-labeled at a concentration of ˜⅓ Km or less) such that IC50≈Ki. The final assay volume was made up to 100 μL with assay buffer [20 mM Tris-HCl pH 7.4, 5 mM MgCl2, 1 mg/mL bovine serum albumin]. Reactions were initiated with enzyme, incubated for 30-60 min at 30° C. to give <30% substrate turnover and terminated with 50 μL silicate SPA beads (containing 3 mM of the respective unlabelled cyclic nucleotide for PDEs 9 and 11)."}
{"smiles": "CCOCCn1nc(CC)c2nc(N(C)C3CCN(C)CC3)nc(Nc3ccncn3)c21", "note": "[Example 2]", "values": [{"measurement": "IC50", "value": 0.5, "unit": "nM"}]}
{"smiles": "CCOCCn1nc(C)c2nc(N3CCNC(C)C3)nc(Nc3ccncn3)c21", "note": "(stereo not shown) [Example 11]", "values": [{"measurement": "IC50", "value": 0.31, "unit": "nM"}]}
{"smiles": "CCOCCn1nc(CC)c2nc(N3CCNC(C)C3)nc(Nc3ccncn3)c21", "note": "(stereo not shown) [Example 15]", "values": [{"measurement": "IC50", "value": 0.11, "unit": "nM"}]}
{"smiles": "CCCOCCn1nc(C)c2nc(N3CCNC(C)C3)nc(Nc3ccncn3)c21", "note": "(stereo not shown) [Example 23]", "values": [{"measurement": "IC50", "value": 0.47, "unit": "nM"}]}
{"smiles": "CCOCCn1nc(C)c2nc(N3CC(C)NCC3C)nc(Nc3ccncn3)c21", "note": "(stereo not shown) [Example 138]", "values": [{"measurement": "IC50", "value": 0.33, "unit": "nM"}]}
{"smiles": "CCOCCn1nc(CC)c2nc(N3CC(C)NCC3C)nc(Nc3ccncn3)c21", "note": "(stereo not shown) [Example 141]", "values": [{"measurement": "IC50", "value": 0.15, "unit": "nM"}]}
{"smiles": "CCOCCn1nc(CC)c2nc(N(C)C3CCN(C)C3)nc(Nc3cc(C)ccn3)c21", "note": "(stereo not shown) [Example 162]", "values": [{"measurement": "IC50", "value": 0.24, "unit": "nM"}]}
{"smiles": "CCOCCn1nc(CO)c2nc(N(C)CC)nc(Nc3cc(C)ccn3)c21", "note": "[Example 181, [1-(2-Ethoxyethyl)-5-(N-ethyl-N-methylamino)-7-(4-methylpyridin-2-ylamino)-1H-pyrazolo[4,3-d]pyrimidin-3-yl]methanol]", "values": [{"measurement": "IC50", "value": 0.41, "unit": "nM"}]}
{"smiles": "CCOCCn1nc(COC)c2nc(N(C)C)nc(Nc3cc(C)ccn3)c21", "note": "[Example 185, 1-(2-Ethoxyethyl)-3-methoxymethyl-N^5,N^5-dimethyl-N^7-(4-methylpyridin-2-yl)-1H-pyrazolo[4,3-d]pyrimidine-5,7-diamine]", "values": [{"measurement": "IC50", "value": 1.32, "unit": "nM"}]}
{"smiles": "CCOCCn1nc(C)c2nc(N(C)[C@H]3CCN(C)C3)nc(Nc3ccncn3)c21", "note": "[Example 191, 1-(2-Ethoxyethyl)-N^5,3-dimethyl-N^5-[(3S)-1-methylpyrrolidin-3-yl]-N^7-pyrimidin-4-yl-1H-pyrazolo[4,3-d]pyrimidine-5,7-diamine]", "values": [{"measurement": "IC50", "value": 2.4, "unit": "nM"}]}
{"smiles": "CCOCCn1nc(COC)c2nc(N3CCN[C@H](C)C3)nc(Nc3cccc(C)n3)c21", "note": "[Example 211]", "values": [{"measurement": "IC50", "value": 2.7, "unit": "nM"}]}
{"smiles": "CCOCc1nn(CCOCC(F)(F)F)c2c(Nc3cccc(C)n3)nc(N3CCNC(C)C3)nc12", "note": "(stereo not shown) [Example 255]", "values": [{"measurement": "IC50", "value": 1.43, "unit": "nM"}]}
{"smiles": "CCOCc1nn(CCOCC(F)(F)F)c2c(Nc3cc(C)ccn3)nc(N3CCNC(C)C3)nc12", "note": "(stereo not shown) [Example 256]", "values": [{"measurement": "IC50", "value": 3.89, "unit": "nM"}]}
